Experimental data reported in patent US20050107394A1, “Novel use of selective pde5 inhibitors” (priority 2001, published 2005).
Several values for one entry are separate records, joined by “and”; a condition that tells them apart may be missing. Equal values may be shown once.

Experiments:
[1] = test system: bleomycin-induced pulmonary fibrosis in rabbits; assay: Oxygenation index (PaO2/FiO2) in bleomycin-induced pulmonary fibrosis; format: in vivo, rabbit; conditions: for effect on O2 saturation: FIG. 2; for oxygenation index (PaO2/FiO2), raised compared with the control (190): NO 20 ppm inhaled, sildenafil 1 mg/kg oral
Method: FIG. 2: Result of determination of the oxygenation index (arterial oxygen partial pressure/fraction of inspired oxygen [PaO2/FiO2]) measured in the model of bleomycin-induced pulmonary fibrosis in rabbits. Whereas systemic PGI (6 ng/kg body weight/min] (PGI, prostacyclin) reduces the oxygenation index by 60% compared with the control (190), the oxygenation index was markedly raised by inhaled NO [20 ppm] by 28% and sildenafil (oral) [1 mg/kg body weight] by 31%.
Healthy rabbits of both sexes were pretreated orally with a gyrase inhibitor (Baytril®) for one week. Ten animals pretreated in this way were not treated with bleomyin and served as control, and, on the day of exposure, the others were anaesthetized with a Ketanest®/Rompun® mixture, intubated intratracheally and ventilated mechanically. An ultrasonic nebulizer (MMAD 2.5 μm) was used to administer by inhalation exactly 1.8 U/kg of bodyweight of bleomycin under volume-controlled ventilation. After 4, 8, 16, 24, 32 and 64 days (in each case n≧5) post exposure, the animals were again anaesthetized, provided with an arterial access (right carotid artery) and underwent bodyweight-adapted ventilation via a tracheostomy in a volume-controlled method. The arterial pO2 and pCO2, and the static compliance of the lung were measured (by recording the intrathoracic pressure and with slow inflation/deflation manoeuvres). Subsequently, the lungs of these animals were dissected and perfused with a Krebs Hensefeit buffer. Under these conditions, the capillary filtraton coefficient (cfc) was then found from the weight gain of the organ after increasing the pulmonary venous pressure by 7.5 mmHg, and the peak ventilation pressure was found. After completion of these measurements, the left main bronchus was ligated in the end-inspiratory position and a bronchoalveolar lavage (BAL) was performed on the right lung. Subsequently, the large vessels and airways of the right lung were dissected off and the organ was homogenized. The left lung was perfusion-fixed with 4% formalin solution while maintaining a pressure gradient of 25 cm H2O and was then stored in 4% formalin until embedded. Firstly, the cells were removed from the BAL, counted and differentiated via a Papenheim stain. The cell-free BAL supernatant was then aliquoted and submitted to further analysis of the surfactant and coagulation properties and a determination of the matrix metallo proteinases (MMPs) and their inhibitors (TIMPs) and of soluble collagen. Bronchoalveolar deposition of 1.8 U/kg of bodyweight of bleomycin led initially to development of an ARDS-like event, with a massive restriction of gas exchange (paO2/FiO2 of >500 mmHg in the controls reduced to ˜110 mmHg on day 4), ground-glass opacities over all sections of the lung in the HRCT and an increase of about 5-fold in the capillary filtration coefficient (cfc). In the later phase of bleomycin-induced lung damage there was then development of pronounced fibrosis which could be confirmed on the basis of the increase in soluble collagen in the BAL and the hydroxyproline in the tissue, on the basis of the histological specimens and of the HRCT findings. […] Consistent with this, a pronounced increase in the extracellular matrix and an alveolar and also interstitial ingress of fibroblasts was observable in the histological sections. Besides the homogeneously distributed zones of fibrosis there were also thin hyperdistended sections of lung with a honeycomb appearance.
Systemically administered PGI (vasodilatator) increased the shunting to about 30%. […] The data for O2 saturation (FIG. 2) correspond directly.

[2] = test system: patients with chronic thromboembolism and displaying secondary PHT; assay: Arterial oxygen partial pressure in patients with chronic thromboembolism; format: in vivo, human; conditions: 7 patients; for effect on arterial oxygen partial pressure: FIG. 4; for arterial oxygen partial pressure (PaO2), improvement: NO 20 ppm inhaled, sildenafil 50 mg oral
Method: (§1) FIG. 4: Result of measurement of the arterial oxygen partial pressure (PaO2) on 7 patients with chronic thromboembolism and displaying secondary PHT (pulmonary hypertension). The arterial oxygen partial pressure was improved by NO (inhaled) [20 ppm] and sildenafil (oral) [50 mg] by respectively 1.8% and 7.6%, whereas the oxygen saturation fell by 13% after administration of PGI (intravenous). In the same experiment, the vascular resistance was measured and determined as delta PVR by a right cardiac catheterization. The vascular resistance was reduced respectively by 25%, 19% and 21% after administration of PGI (intravenous) [6 ng/kg bodyweight/min], NO (inhaled) [20 ppm] and sildenafil (oral) [50 mg].
(§2) 7 patients with CTEPH underwent a Swan-Ganz catheter investigation with measurement of the ventilation/perfusion (V/Q) distribution (using the multiple inert gas elimination technique (MIGET)). After determination of the baseline parameters (haemodynamics and gas exchange), all the patients initially inhaled 20 ppm NO, followed by a second baseline period (10-15 min), and then PGI was infused (6 ng/kg bodyweight/min), again followed by a second baseline period (10-15 min) and then an oral dose of 50 mg of sildenafil was given (120-150 min follow-up). 3 of the 7 patients were controlled by continuous nasal oxygen therapy in order to reach an arterial oxygenation of >88%. The following parameters were measured under baseline conditions: mean pulmonary arterial pressure (mPAP) 52.1 +/−3.3 mmHg, cardiac index (CI) 2.2+/−0.1 |* min^−1*m^−2, pulmonary vascular resistance index (PVRI) 1703.8+/−129.5 dyn*s*cm^−6*m^2, arterial pO2 72.5+/−3.3 mmHg and mixed venous oxygen saturation (SvO2) of 63.4+/−2.2%.

[3] = test system: patients with chronic thromboembolism and displaying secondary PHT; assay: Pulmonary vascular resistance (delta PVR, right cardiac catheterization) in patients with chronic thromboembolism; format: in vivo, human; conditions: for effect on pulmonary vascular resistance: 7 patients with CTEPH; for vascular resistance (PVR), reduction: 7 patients, PGI i.v. 6 ng/kg/min, NO 20 ppm inhaled, sildenafil 50 mg oral
Method: as §1, §2

[4] = test system: patients with ILD displaying secondary PHT; assay: Arterial oxygen partial pressure (delta PaO2) in patients with ILD; format: in vivo, human; conditions: 7 patients with ILD; for arterial oxygen partial pressure (delta PaO2) / O2 saturation, increase: NO 20 ppm inhaled, sildenafil 50 mg oral
Description: FIG. 6: Result of determination of the arterial oxygen partial pressure (PaO2) on 7 patients with ILD displaying secondary PHT (pulmonary hypertension) measured as delta PaO2.
as §2, with “ILD” for “CTEPH”, “5” for “3”, “39.6+/−2.8 mmHg and” for “52.1 +/−3.3 mmHg, cardiac index (CI) 2.2+/−0.1 |* min^−1*m^−2,”, “1255+/−215 dyn*s*cm−5*m^2.” for “1703.8+/−129.5 dyn*s*cm^−6*m^2, arterial pO2 72.5+/−3.3 mmHg and mixed venous oxygen saturation (SvO2) of 63.4+/−2.2%.”

[5] = test system: patients with COPD (chronic obstructive pulmonary disease); assay: Arterial oxygen saturation at rest in COPD patients; format: in vivo, human; parameters: dose or concentration left out as unconfirmed; conditions: 4 COPD patients; sildenafil oral, 6 months
Method: FIG. 8: Result of determination of the arterial oxygen saturation on 4 patients with COPD (chronic obstructive pulmonary disease) treated with sildenafil (75 mg/day) (oral) measured at rest over a period of 6 months. The arterial oxygen saturation in the patient improved respectively by 2%, 4%, 5% and 6%, compared with the saturation at the start of the series of measurements (time: 0 months). […]

Compound	effect on O2 saturation [1]	oxygenation index (PaO2/FiO2), raised compared with the control (190) [1] [%]	effect on arterial oxygen partial pressure [2]	arterial oxygen partial pressure (PaO2), improvement [2] [%]	effect on pulmonary vascular resistance [3]	vascular resistance (PVR), reduction [3] [%]	arterial oxygen partial pressure (delta PaO2) / O2 saturation, increase [4]	arterial oxygen saturation at rest, improvement compared with the start (0 months), one value per patient [5]	oxygenation index (PaO2/FiO2), reduction compared with the control (190) ([1]; PGI 6 ng/kg/min systemic) [%]	arterial oxygen partial pressure / oxygen saturation, decrease ([2]; PGI intravenous 6 ng/kg/min) [%]	arterial oxygen partial pressure / oxygen saturation, decrease ([4]; PGI intravenous 6 ng/kg/min)
CCCc1nn(C)c2c(=O)[nH]c(-c3cc(S(=O)(=O)N4CCN(C)CC4)ccc3OCC)nc12 [sildenafil, 5-[2-ethoxy-5-(4-methyl-1-piperazinyl-sulphonyl)phenyl]-1-methyl-3-n-propyl-1,6-dihydro-7H-pyrazolo[4,3-d]pyrimidin-7-one]	marked increases in O2 saturation	31	increased	7.6	marked reduction	21	15% and 13%	2% and 4% and 5% and 6%	–	–	–
CCCCC[C@H](O)/C=C/[C@@H]1[C@H]2C/C(=C/CCCC(=O)O)O[C@H]2C[C@H]1O [PGI, prostacyclin]	reduced O2 saturation	–	–	–	marked reduction	25	–	–	60	13	12.5% and 12%
[N]=O [NO, nitric oxide]	marked increases in O2 saturation	28	not changed	1.8	marked reduction	19	5% and 4.8%	–	–	–	–
